The values that follow come from ChEMBL document CHEMBL3132835, “Biological evaluation and molecular modelling of didanosine derivatives” (Medchemcomm, 2014).

pIC50: −log10 of the molar value.

For data set [1], the system named is Human immunodeficiency virus 1. The experiment in a line: Antiviral activity against wild type HIV-1 isolate infected in human PBMC cells assessed as inhibition of viral production by p24 antigen production/ELISA. Format: functional, organism-based. The note with it: Human immunodeficiency virus 1, PBMC.
Data set [2] can be described thus: Selectivity index, ratio of CCID50 for human PBMC to IC50 for HIV-1 HTLV-3B. The data set is classed as functional.
Data set [3] deals with Human immunodeficiency virus 1. The experiment in a line: Antiviral activity against HIV-1 HTLV-3B infected in human PBMC cells assessed as inhibition of viral production by p24 antigen production/ELISA. The data set is classed as functional, organism-based. The note with it: Human immunodeficiency virus 1, HTLV-3B. Background: In an ELISA, binding on a coated surface is turned into a signal by an enzyme label.

Data set [4] can be described thus: Cytotoxicity against human PBMC assessed as inhibition of cell growth by trypan blue staining. The data set is classed as cell-based. To be noted: read-out: CCID50.
Data set [5] relates to Human immunodeficiency virus 1. The experiment in a line: Fold resistance, ratio of IC50 for NRTI-resistant HIV-1 D67N, T69D, K70R, A98G, V118I, M184V, T215F and K219Q mutant to wild type HIV-1 isolate infected in human PBMC cells. The data set is classed as functional.
The nature of data set [6]: Half life in rat. Format: ADME, organism-based. To be noted: in vivo.

As usually defined, the pIC50 is the IC50 on a negative log10 scale, so that one unit is a factor of ten. In the case of `CCCCCOC(=O)OC[C@@H]1CC[C@H](n2cnc3c(=O)nc[nH]c32)O1`, the negative-log IC50 (pIC50) is 5.19 in data set [1] and 4.52 in data set [3]. Also, the “Selectivity Index” value in data set [2] was 200. In addition, the CC50 in data set [4] was determined as 7000 µM. For the same compound, in data set [5], the “Ratio IC50” value was 600.

`CCOC(=O)OC[C@@H]1CC[C@H](n2cnc3c(=O)nc[nH]c32)O1`: the “Selectivity Index” value in data set [2] came out at 1.2. In addition, the pIC50 in data set [3] is 3.31. Moreover, in data set [4], the CC50 was 570 µM.

Turning to `CCCCOC(=O)OC[C@@H]1CC[C@H](n2cnc3c(=O)nc[nH]c32)O1`, in data set [2], the “Selectivity Index” value came out at 2.9. Also, in data set [3], the pIC50 was 4.00. Also, the CC50 in data set [4] was 290 µM.

On to `CCCCCCOC(=O)OC[C@@H]1CC[C@H](n2cnc3c(=O)nc[nH]c32)O1`, for which, in data set [2], the “Selectivity Index” value is on record as 5.2. For the same compound, the pIC50 in data set [3] is 4.40. Besides, the CC50 in data set [4] is 220 µM.

For `CCCCCCCOC(=O)OC[C@@H]1CC[C@H](n2cnc3c(=O)nc[nH]c32)O1`, in data set [2], the “Selectivity Index” value is 1.7. Further, in data set [3], the pIC50 was 3.52. Moreover, the CC50 in data set [4] was found to be 520 µM.

Broadly, the half-life is the time in which the quantity being followed falls by half. A high value points to slow decline. Regarding `O=c1[nH]cnc2c1ncn2[C@H]1CC[C@@H](CO)O1` [DIDANOSINE], the pIC50 in data set [1] was 5.47; in data set [3], 4.40. Also, the “Selectivity Index” value in data set [2] is 2.3. Moreover, the CC50 in data set [4] was determined as 100 µM. In data set [6], this compound gave a half-life of 1 h. Besides, the “Ratio IC50” value in data set [5] was determined as 900.

Regarding `Cc1cn([C@H]2C[C@H](N=[N+]=[N-])[C@@H](CO)O2)c(=O)[nH]c1=O` [ZIDOVUDINE], the pIC50 in data set [1] is 6.67. In data set [5], the “Ratio IC50” value stood at 4000.
